What was measured:
[1] = tested on: giant foxtail; test: Test B pre/postemergence giant foxtail; type: in vivo, Setaria faberii
How it was run: (§1)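 Herbicidal effect was estimated by eye on a ten-point control scale after plants spent twelve to sixteen days in a greenhouse following soil or foliar treatment. Foliar sprays targeted plants at one to four leaves; all doses were formulated in a non-phytotoxic solvent with surfactant.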

[2] = tested on: purple nutsedge; test: Test B pre/postemergence purple nutsedge; type: in vivo, Cyperus rotundus
How it was run: as §1

[3] = tested on: sugar beet; test: Test B pre/postemergence sugar beet; type: in vivo, Beta vulgaris
How it was run: as §1

[4] = tested on: morningglory; test: Test B pre/postemergence morningglory; type: in vivo, Ipomoea hederacea
How it was run: as §1

[5] = tested on: soybean; test: Test B pre/postemergence soybean; type: in vivo, Glycine max
How it was run: as §1

[6] = tested on: crabgrass; test: Test B pre/postemergence crabgrass; type: in vivo, Digitaria sanguinalis
How it was run: as §1

[7] = tested on: rice; test: Test B flood test rice; type: in vivo, Oryza sativa
How it was run: (§2)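 Plants were grown to the 2-leaf stage before treatment with test chemical, then held in a greenhouse for twelve to sixteen days. Injury was visually rated against untreated controls on a 0–10 scale, where 0 is no effect and 10 is complete control.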

[8] = tested on: cocklebur; test: Test B pre/postemergence cocklebur; type: in vivo, Xanthium strumarium
How it was run: as §1

[9] = tested on: rape; test: Test B pre/postemergence rape; type: in vivo, Brassica napus
How it was run: as §1

[10] = tested on: wheat; test: Test B pre/postemergence wheat; type: in vivo, Triticum aestivum
How it was run: as §1

[11] = tested on: smallflower flatsedge; test: Test B flood test smallflower flatsedge; type: in vivo, Cyperus difformis
How it was run: as §2

[12] = tested on: duck salad; test: Test B flood test duck salad; type: in vivo, Heteranthera limosa
How it was run: as §2

[13] = tested on: velvetleaf; test: Test B pre/postemergence velvetleaf; type: in vivo, Abutilon theophrasti
How it was run: as §1

[14] = tested on: wild oat; test: Test B pre/postemergence wild oat; type: in vivo, Avena fatua
How it was run: as §1

[15] = tested on: corn; test: Test B pre/postemergence corn; type: in vivo, Zea mays
How it was run: as §1

[16] = tested on: pigweed; test: Test B pre/postemergence pigweed; type: in vivo, Amaranthus retroflexus
How it was run: as §1

[17] = Postemergence, Rate 125 g/ha, scale 0 to 10, 0 is no effect, 10 is complete control
[18] = Postemergence, Rate 250 g/ha, scale 0 to 10, 0 is no effect, 10 is complete control
[19] = Postemergence, Rate 500 g/ha, scale of 0 to 10 where 0 is no effect and 10 is complete control
[20] = Preemergence, Rate 62 g/ha, scale 0 to 10 (0 no effect, 10 complete control)
[21] = Preemergence, Rate 125 g/ha, scale of 0 to 10 where 0 is no effect and 10 is complete control
[22] = Preemergence, Rate 250 g/ha, scale 0 to 10, 0 is no effect, 10 is complete control
[23] = Preemergence, Rate 500 g/ha, scale 0 to 10, 0 is no effect, 10 is complete control
[24] = Rate 62 g/ha, Postemergence, scale of 0 to 10 where 0 is no effect and 10 is complete control
[25] = Rate 62 g/ha, flood test species, Pre-emergence, visual evaluation after twelve to sixteen days
[26] = Rate 125 g/ha, under heading Pre-emergence, flood test species, visual evaluation after twelve to sixteen days
[27] = Rate 250 g/ha, Pre-emergence, flood-test species, scale 0 to 10, 0 is no effect, 10 is complete control
[28] = Rate 500 g/ha, Pre-emergence, flood test species, scale 0 to 10 (0 no effect, 10 complete control)

`Cc1nc(Cl)sc1C(C)n1c(=O)on(C(=O)N(c2ccccc2)C(C)C)c1=O` (centres unmarked) [Compound 407] was tested, and the “Plant response rating, Giant foxtail” value [1, 17] was 0, the “Plant response rating, Giant foxtail” value [1, 18] was 3 and the “Giant foxtail plant response rating” value [1, 19] was 8. For the same compound, the “Plant response rating, Giant foxtail” value [1, 20] was 0, the “Plant response rating, Giant foxtail” value [1, 21] was 6 and the “Giant foxtail plant response rating” value [1, 22] was 9. For the same compound, the “Giant foxtail plant response rating” value [1, 23] was 10, the “Giant foxtail plant response rating” value [1, 24] was 0 and the “Plant response rating, Nutsedge” value [2, 18] was 0. For the same compound, the “Nutsedge plant response rating” value [2, 19] was 0, the “Plant response rating, Nutsedge” value [2, 20] was 0 and the “Plant response rating, Nutsedge” value [2, 21] was 0. The “Nutsedge plant response rating” value [2, 22] was 0, the “Nutsedge plant response rating” value [2, 23] was 0 and the “Plant response rating, Sugarbeets” value [3, 18] was 0. For the same compound, the “Sugarbeets plant response rating” value [3, 19] was 0, the “Plant response rating, Sugarbeets” value [3, 20] was 0 and the “Plant response rating, Sugarbeets” value [3, 21] was 0. For the same compound, the “Sugarbeets plant response rating” value [3, 22] was 0, the “Sugarbeets plant response rating” value [3, 23] was 0 and the “Plant response rating, Morningglory” value [4, 18] was 10. For the same compound, the “Morningglory plant response rating” value [4, 19] was 10, the “Plant response rating, Morningglory” value [4, 20] was 0 and the “Plant response rating, Morningglory” value [4, 21] was 0. The “Morningglory plant response rating” value [4, 22] was 0, the “Morningglory plant response rating” value [4, 23] was 0 and the “Plant response rating, Soybean” value [5, 18] was 2. For the same compound, the “Soybean plant response rating” value [5, 19] was 2, the “Plant response rating, Soybean” value [5, 20] was 0 and the “Plant response rating, Soybean” value [5, 21] was 0. For the same compound, the “Soybean plant response rating” value [5, 22] was 0, the “Soybean plant response rating” value [5, 23] was 0 and the “Plant response rating, Crabgrass” value [6, 17] was 0. For the same compound, the “Plant response rating, Crabgrass” value [6, 18] was 1, the “Crabgrass plant response rating” value [6, 19] was 3 and the “Plant response rating, Crabgrass” value [6, 20] was 0. For the same compound, the “Plant response rating, Crabgrass” value [6, 21] was 2, the “Crabgrass plant response rating” value [6, 22] was 5 and the “Crabgrass plant response rating” value [6, 23] was 9. The “Crabgrass plant response rating” value [6, 24] was 0, the “Plant response rating, Rice (0 to 10 scale, 0 is no effect, 10 is complete control)” value [7, 25] was 0 and the “Rice plant response rating (0 to 10 scale, 0 is no effect, 10 is complete control)” value [7, 26] was 0. The “Rice plant response rating” value [7, 27] was 0, the “Rice plant response rating” value [7, 28] was 0 and the “Plant response rating, Cocklebur” value [8, 17] was 0. The “Plant response rating, Cocklebur” value [8, 18] was 0, the “Cocklebur plant response rating” value [8, 19] was 0 and the “Plant response rating, Cocklebur” value [8, 20] was 0. For the same compound, the “Plant response rating, Cocklebur” value [8, 21] was 0, the “Cocklebur plant response rating” value [8, 22] was 0 and the “Cocklebur plant response rating” value [8, 23] was 0. The “Cocklebur plant response rating” value [8, 24] was 0, the “Plant response rating, Rape” value [9, 18] was 0 and the “Plant response rating, Rape” value [9, 20] was 0. The “Plant response rating, Rape” value [9, 21] was 0, the “Rape plant response rating” value [9, 22] was 0 and the “Rape plant response rating” value [9, 23] was 0. For the same compound, the “Wheat plant response rating” value [10, 19] was 0, the “Plant response rating, Wheat” value [10, 20] was 0 and the “Plant response rating, Wheat” value [10, 21] was 0. The “Wheat plant response rating” value [10, 22] was 0, the “Wheat plant response rating” value [10, 23] was 0 and the “Plant response rating, S. Flatsedge (0 to 10 scale, 0 is no effect, 10 is complete control)” value [11, 25] was 0. For the same compound, the “S. Flatsedge plant response rating (0 to 10 scale, 0 is no effect, 10 is complete control)” value [11, 26] was 0, the “S. Flatsedge plant response rating” value [11, 27] was 0 and the “S. Flatsedge plant response rating” value [11, 28] was 0. The “Plant response rating, Ducksalad (0 to 10 scale, 0 is no effect, 10 is complete control)” value [12, 25] was 0, the “Ducksalad plant response rating (0 to 10 scale, 0 is no effect, 10 is complete control)” value [12, 26] was 0 and the “Ducksalad plant response rating” value [12, 27] was 0. The “Ducksalad plant response rating” value [12, 28] was 0, the “Plant response rating, Velvetleaf” value [13, 18] was 0 and the “Velvetleaf plant response rating” value [13, 19] was 2. The “Plant response rating, Velvetleaf” value [13, 20] was 0, the “Plant response rating, Velvetleaf” value [13, 21] was 0 and the “Velvetleaf plant response rating” value [13, 22] was 0. For the same compound, the “Velvetleaf plant response rating” value [13, 23] was 0, the “Wild oats plant response rating” value [14, 19] was 0 and the “Plant response rating, Wild oats” value [14, 20] was 0. The “Plant response rating, Wild oats” value [14, 21] was 0, the “Wild oats plant response rating” value [14, 22] was 0 and the “Wild oats plant response rating” value [14, 23] was 0. The “Plant response rating, Corn” value [15, 17] was 0, the “Plant response rating, Corn” value [15, 18] was 0 and the “Corn plant response rating” value [15, 19] was 0. The “Plant response rating, Corn” value [15, 20] was 0, the “Plant response rating, Corn” value [15, 21] was 0 and the “Corn plant response rating” value [15, 22] was 0. The “Corn plant response rating” value [15, 23] was 0, the “Corn plant response rating” value [15, 24] was 0 and the “Plant response rating, Redroot pigweed” value [16, 18] was 0. The “Redroot pigweed plant response rating” value [16, 19] was 0, the “Plant response rating, Redroot pigweed” value [16, 20] was 0 and the “Plant response rating, Redroot pigweed” value [16, 21] was 0. The “Redroot pigweed plant response rating” value [16, 22] was 0 and the “Redroot pigweed plant response rating” value [16, 23] was 0.

From US6737383B1, “Herbicidal oxadiazolidines” (priority 1999, dated 2004)
